Among the data in PubChem BioAssay (NCI) are GI50 and TGI values, retold here.

Test systems include SW-620 colon; NCI-H23 lung; SK-MEL-5 melanoma; KM12 colon; SK-OV-3 ovarian; LOX IMVI melanoma; SR leukemia; COLO 205 colon; SN12C renal; CCRF-CEM leukemia.
What all share (test): NCI anticancer screen, dose series, 48 h

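The compound was tested at five concentrations on cells cultured in 96-well plates, with a 48-hour exposure period. The concentration for 50% growth inhibition is given as GI50. TGI marks complete inhibition of growth.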

`O=C(NCCCCCCCNC(=O)OCc1ccc2c(Cl)cc(Cl)c(O)c2n1)OCc1ccc2c(Cl)cc(Cl)c(O)c2n1`: the GI50 with SW-620 colon was 0.273 µM; with NCI-H23 lung it was 1.49 µM; in the assay with SK-MEL-5 melanoma, 0.966 µM; in the assay on KM12 colon, 1.18 µM; in the assay with SK-OV-3 ovarian, 3.93 µM; in the assay with LOX IMVI melanoma it was 0.187 µM. Further, the GI50 in the assay with SR leukemia was 0.267 µM; with COLO 205 colon, 0.564 µM; in the assay with SN12C renal it was 0.774 µM; with CCRF-CEM leukemia, 0.282 µM. The TGI in the assay with SW-620 colon worked out at 0.744 µM; in the assay on NCI-H23 lung, 3.2 µM; with SK-MEL-5 melanoma it was 2.26 µM; with KM12 colon it was 2.87 µM; with SK-OV-3 ovarian it was 14 µM; in the assay on LOX IMVI melanoma it was 0.379 µM. For the same compound, the TGI in the assay with SR leukemia came out at 1.41 µM; in the assay with COLO 205 colon, 2 µM; with SN12C renal, 2.17 µM; in the assay with CCRF-CEM leukemia, 1.32 µM.
For the compound `CO[C@@]12[C@@H]3NC3CN1C1=C(C(=O)C(N)=C(C)C1=O)[C@@H]2COC(N)=O` (some centres undefined), the TGI in the assay on SW-620 colon is 7.01 µM; in the assay with NCI-H23 lung, 1.46 µM; in the assay on SK-MEL-5 melanoma it was 0.631 µM; in the assay with KM12 colon it was 7.22 µM; with SK-OV-3 ovarian, 5.33 µM; in the assay with LOX IMVI melanoma, 2.06 µM. Moreover, the TGI was over 100 µM with SR leukemia, 2.3 µM in the assay on COLO 205 colon, over 40.9 µM with SN12C renal and over 63.5 µM in the assay on CCRF-CEM leukemia. Besides, the GI50 in the assay on KM12 colon was 1.22 µM; in the assay on SR leukemia, 0.0325 µM; with COLO 205 colon, 0.55 µM; with CCRF-CEM leukemia, 0.296 µM.
For `O=c1c2ccccc2oc2ccc(OCCCCCCN3CCCCCC3)cc12`, the GI50 in the assay on SW-620 colon was 3.11 µM; in the assay on NCI-H23 lung, 3.1 µM; in the assay on SK-MEL-5 melanoma, 1.68 µM; with KM12 colon, 3.2 µM; in the assay on SK-OV-3 ovarian, 2.77 µM; with LOX IMVI melanoma, 1.85 µM. Also, the GI50 in the assay with SR leukemia is 1.95 µM; in the assay with COLO 205 colon it was 1.93 µM; in the assay with SN12C renal, 4.07 µM; with CCRF-CEM leukemia, 3.17 µM. Further, the TGI came to 11 µM in the assay with SW-620 colon; 11.7 µM with NCI-H23 lung; 3.04 µM in the assay with SK-MEL-5 melanoma; 11.5 µM with KM12 colon; 8.29 µM in the assay with SK-OV-3 ovarian; 3.54 µM in the assay on LOX IMVI melanoma. Further, the TGI with SR leukemia stood at 4.93 µM; in the assay on COLO 205 colon it was 4.05 µM; with SN12C renal it was 16.2 µM; with CCRF-CEM leukemia it was 12 µM.
Regarding `CN(C=O)/C=C/c1cc(O)ccc1O`, the TGI in the assay with SW-620 colon was 37.9 µM; in the assay on NCI-H23 lung, 64.3 µM; in the assay on SK-MEL-5 melanoma, over 66.9 µM; in the assay on KM12 colon, over 100 µM; in the assay on SK-OV-3 ovarian, over 100 µM; in the assay with LOX IMVI melanoma, 45 µM. Also, the TGI with SR leukemia stood at 51.1 µM; in the assay with COLO 205 colon, 45.4 µM; in the assay on SN12C renal, 44.3 µM; in the assay with CCRF-CEM leukemia, 54.7 µM.
For `COc1ccc(OC)c2c3c(ccc12)C(c1ccccc1)OC3=O` (centres undefined), the TGI with SW-620 colon, in the assay with NCI-H23 lung, in the assay with SK-MEL-5 melanoma, with KM12 colon, in the assay on SK-OV-3 ovarian and in the assay on LOX IMVI melanoma was over 100 µM each time. Moreover, the TGI in the assay with SR leukemia, with COLO 205 colon, with SN12C renal and in the assay with CCRF-CEM leukemia was over 100 µM throughout.
As to `O=C1CN(/N=C/c2ccc(-c3ccc(F)cc3)o2)C(=O)N1`, the TGI in the assay with SW-620 colon, with NCI-H23 lung, with SK-MEL-5 melanoma, in the assay with KM12 colon, in the assay on SK-OV-3 ovarian and in the assay with LOX IMVI melanoma was over 100 µM each time. Further, the TGI is 75.7 µM with SR leukemia, over 100 µM in the assay on COLO 205 colon, over 100 µM in the assay with SN12C renal and over 100 µM in the assay on CCRF-CEM leukemia.
In the case of `COc1cc(/C=C(\C#N)C(N)=C(C#N)C#N)cc(O)c1O`, the TGI in the assay with SW-620 colon, in the assay on NCI-H23 lung, with SK-MEL-5 melanoma, in the assay with KM12 colon, in the assay with SK-OV-3 ovarian and in the assay with LOX IMVI melanoma was over 100 µM throughout. The TGI was over 100 µM with SR leukemia, over 100 µM in the assay on COLO 205 colon, over 100 µM in the assay with SN12C renal and over 81.1 µM in the assay with CCRF-CEM leukemia.
For `C[N+](C)(C)CC1CCCC(C[N+](C)(C)C)C1O` (centres undefined), the TGI in the assay with SW-620 colon, in the assay with NCI-H23 lung, in the assay with SK-MEL-5 melanoma, in the assay on KM12 colon, with SK-OV-3 ovarian and in the assay with LOX IMVI melanoma was over 100 µM each time. Further, the TGI in the assay on SR leukemia, with COLO 205 colon, with SN12C renal and in the assay on CCRF-CEM leukemia was over 100 µM throughout.
Regarding `COC(=O)/C(=N/NC(N)=O)C(C(=O)OC)C(=O)C(=O)Nc1ccc(Cl)cc1` (centres undefined), the TGI with SW-620 colon, with NCI-H23 lung, with SK-MEL-5 melanoma, in the assay with KM12 colon, in the assay with SK-OV-3 ovarian and in the assay on LOX IMVI melanoma was over 100 µM each time. The TGI in the assay with SR leukemia was 46.5 µM; in the assay with COLO 205 colon, over 100 µM; in the assay on SN12C renal, over 100 µM; in the assay on CCRF-CEM leukemia, over 75.5 µM.
Consider `COc1nc(NC2OC(COC(C)=O)C(OC(C)=O)C(OC(C)=O)C2OC(C)=O)c(-c2csc(N)n2)c(=O)n1C` (centres undefined), for which the TGI in the assay with SW-620 colon, with NCI-H23 lung, in the assay on SK-MEL-5 melanoma, in the assay with KM12 colon, in the assay with SK-OV-3 ovarian and in the assay on LOX IMVI melanoma was over 100 µM each time. For the same compound, the TGI in the assay on SR leukemia, in the assay with COLO 205 colon, in the assay with SN12C renal and in the assay with CCRF-CEM leukemia was over 100 µM in each case.
Regarding `O=C(c1ccc(Cl)cc1)C1OC12C(=O)Nc1ccccc12` (centres undefined), the TGI amounted to 17.4 µM in the assay on SW-620 colon; 32.9 µM with NCI-H23 lung; 24.6 µM with SK-MEL-5 melanoma; 32.5 µM in the assay on KM12 colon; 60.4 µM in the assay with SK-OV-3 ovarian; 4.67 µM in the assay on LOX IMVI melanoma. Also, the TGI in the assay on SR leukemia was determined as 3.22 µM; in the assay with COLO 205 colon it was 8.53 µM; in the assay on SN12C renal it was 19.3 µM; in the assay on CCRF-CEM leukemia it was 4.71 µM.
For `O=C(Nc1ccccc1C(=O)N/N=C(\c1ccccc1)c1ccccn1)c1ccc(F)cc1`, the GI50 in the assay with SW-620 colon is 0.448 µM; in the assay with NCI-H23 lung, 0.595 µM; in the assay with SK-MEL-5 melanoma it was 0.22 µM; in the assay on KM12 colon, 0.421 µM; in the assay on SK-OV-3 ovarian, 0.354 µM; with LOX IMVI melanoma it was 0.247 µM. Moreover, the GI50 with SR leukemia was 0.142 µM; with COLO 205 colon, 0.215 µM; with SN12C renal, 0.584 µM; in the assay with CCRF-CEM leukemia, 0.121 µM. Further, the TGI in the assay with SW-620 colon was over 100 µM; with NCI-H23 lung, over 100 µM; in the assay with SK-MEL-5 melanoma it was 3.5 µM; in the assay on KM12 colon it was over 100 µM; in the assay with SK-OV-3 ovarian, over 20.9 µM; in the assay on LOX IMVI melanoma, over 100 µM. Moreover, the TGI with SR leukemia, with COLO 205 colon, in the assay on SN12C renal and in the assay with CCRF-CEM leukemia was over 100 µM in each case.
For `CC1CC2(C)CC(=O)C1C1C(=O)N(CCN3CCCCC3)C(=O)C12` (centres undefined), the GI50 in the assay on SW-620 colon, in the assay on NCI-H23 lung, in the assay with SK-MEL-5 melanoma, in the assay on KM12 colon, with SK-OV-3 ovarian and in the assay with LOX IMVI melanoma was over 100 µM in each case. For the same compound, the GI50 in the assay with SR leukemia, in the assay with COLO 205 colon, with SN12C renal and with CCRF-CEM leukemia was over 100 µM throughout. The TGI with SW-620 colon, in the assay on NCI-H23 lung, with SK-MEL-5 melanoma, with KM12 colon, with SK-OV-3 ovarian and in the assay with LOX IMVI melanoma was over 100 µM throughout. For the same compound, the TGI with SR leukemia, with COLO 205 colon, with SN12C renal and with CCRF-CEM leukemia was over 100 µM throughout.
As for `Cc1cc(Cl)ccc1NS(=O)(=O)c1ccc(-c2cnc(C3CC3)o2)cc1`, the GI50 is 0.198 µM in the assay with SW-620 colon; 0.556 µM in the assay with NCI-H23 lung; 0.517 µM in the assay on SK-MEL-5 melanoma; 0.211 µM in the assay with KM12 colon; 4.32 µM in the assay on SK-OV-3 ovarian; 0.622 µM with LOX IMVI melanoma. Also, the GI50 in the assay with SR leukemia was 0.0967 µM; with COLO 205 colon, 0.36 µM; in the assay with SN12C renal, 0.578 µM; in the assay on CCRF-CEM leukemia it was 0.239 µM. Moreover, the TGI in the assay on SW-620 colon was 16.1 µM; with NCI-H23 lung, 17.5 µM; in the assay with SK-MEL-5 melanoma it was 6.88 µM; with KM12 colon, 15.3 µM; in the assay with SK-OV-3 ovarian, 26.2 µM; in the assay on LOX IMVI melanoma, 14.2 µM. Also, the TGI in the assay with SR leukemia came out at 28.4 µM; in the assay on COLO 205 colon, 4.44 µM; with SN12C renal, 16.5 µM; with CCRF-CEM leukemia, 38.3 µM.
For `Oc1ccc(Cl)cc1Cc1cc(Cl)ccc1O`, the GI50 in the assay on SW-620 colon is 3.04 µM; with NCI-H23 lung it was 2.04 µM; in the assay on SK-MEL-5 melanoma, 1.62 µM; with KM12 colon, 3.06 µM; with SK-OV-3 ovarian it was 2.81 µM; in the assay on LOX IMVI melanoma it was 2.82 µM. The GI50 was 4.45 µM in the assay with SR leukemia, 13.7 µM in the assay on COLO 205 colon, 2.8 µM in the assay on SN12C renal and 2.43 µM with CCRF-CEM leukemia. Moreover, the TGI in the assay with SW-620 colon came to 12.4 µM; with NCI-H23 lung it was 5.79 µM; in the assay on SK-MEL-5 melanoma, 3.46 µM; in the assay with KM12 colon, 11.1 µM; in the assay on SK-OV-3 ovarian, 10.9 µM; with LOX IMVI melanoma, 8.51 µM. In addition, the TGI is 35.8 µM with SR leukemia, 26.8 µM in the assay on COLO 205 colon, 10.7 µM in the assay with SN12C renal and 9.79 µM with CCRF-CEM leukemia.
